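Compound exposure: 48 hours, 5 concentrations, 96-well plates. Here, GI50 denotes the concentration required for 50% inhibition of growth.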 The source made the active and inactive calls. Rule as the data show it: active = GI50 up to about 1.1 µM and inactive = higher.
What was measured:
Test in all cases: NCI anticancer screen, dose series, 48 h
786-0 = test system: 786-0
ACHN = test system: ACHN
SK-MEL-5 = test system: SK-MEL-5
HCT-15 = test system: HCT-15
OVCAR-8 = test system: OVCAR-8
UO-31 = test system: UO-31
Malme-3M = test system: Malme-3M
IGROV-1 = test system: IGROV-1
T47D = test system: T47D
A549 = test system: A549
MDA-MB-231 = test system: MDA-MB-231
EKVX = test system: EKVX
MOLT-4 = test system: MOLT-4
SF-539 = test system: SF-539
KM12 = test system: KM12
RXF 393 = test system: RXF 393
DU-145 = test system: DU-145
UACC-257 = test system: UACC-257
LXFL 529 = test system: LXFL 529
XF498 = test system: XF498

| Structure (SMILES) | GI50 (786-0) | GI50 (ACHN) | GI50 (SK-MEL-5) | GI50 (HCT-15) [µM] | GI50 (OVCAR-8) | GI50 (UO-31) | GI50 (Malme-3M) | GI50 (IGROV-1) | GI50 (T47D) | GI50 (A549) | GI50 (MDA-MB-231) | GI50 (EKVX) | GI50 (MOLT-4) | GI50 (SF-539) | GI50 (KM12) | GI50 (RXF 393) | GI50 (DU-145) | GI50 (UACC-257) | GI50 (LXFL 529) | GI50 (XF498) |
| --- | --- | --- | --- | --- | --- | --- | --- | --- | --- | --- | --- | --- | --- | --- | --- | --- | --- | --- | --- | --- |
| Cc1nc2c(cc1OCc1ccccc1)C(=O)C1=C(C2=O)C2OC(=O)CC2OC1(C)C (stereo not drawn) | 0.3 µM (active) | 0.619 µM (active) | 1.18 µM (inactive) | 0.228 | 2.72 µM (inactive) | 1.68 µM (inactive) | 0.474 µM (active) | 0.312 µM (active) | 0.288 µM (active) | 6.44 µM (inactive) | 0.43 µM (active) | 1.55 µM (inactive) | 0.358 µM (active) | 0.728 µM (active) | 0.531 µM (active) | 0.349 µM (active) | 1.71 µM (inactive) | 0.671 µM (active) | – | – |
| COc1ccc2c3c1C(=O)CCC3CO2 (stereo not drawn) | > 100 µM (inactive) | > 100 µM (inactive) | > 100 µM (inactive) | > 100 | > 100 µM (inactive) | > 100 µM (inactive) | > 100 µM (inactive) | > 100 µM (inactive) | – | > 100 µM (inactive) | – | 91 µM (inactive) | > 100 µM (inactive) | > 100 µM (inactive) | > 100 µM (inactive) | – | – | > 100 µM (inactive) | > 100 µM (inactive) | > 100 µM (inactive) |
| Cc1cc(=O)c2c(O)cc3c(c2o1)CC=C(COC1OC(COC2OC(CO)C(O)C(O)C2O)C(O)C(O)C1O)CO3 (stereo not drawn) | > 100 µM (inactive) | > 100 µM (inactive) | > 100 µM (inactive) | > 100 | > 100 µM (inactive) | > 100 µM (inactive) | > 100 µM (inactive) | > 100 µM (inactive) | – | > 100 µM (inactive) | – | > 100 µM (inactive) | > 100 µM (inactive) | > 100 µM (inactive) | > 100 µM (inactive) | – | – | > 100 µM (inactive) | > 100 µM (inactive) | > 100 µM (inactive) |
| Cc1cccc(C(C)C)c1NC(=O)C(=O)CC(=O)c1c(C)[n+]([O-])c2ccccc2[n+]1[O-] | 49.1 µM (inactive) | > 100 µM (inactive) | 34 µM (inactive) | 20.9 | 31.9 µM (inactive) | > 100 µM (inactive) | 18.7 µM (inactive) | 30.2 µM (inactive) | – | 36.7 µM (inactive) | – | 30.7 µM (inactive) | 21.5 µM (inactive) | 36.9 µM (inactive) | 38.6 µM (inactive) | 44.2 µM (inactive) | – | 23.3 µM (inactive) | 34 µM (inactive) | – |
| O=C1N[C@H]2C(=O)c3c(Cl)sc(Cl)c3[C@H]2O1 | 14.2 µM (inactive) | 7.6 µM (inactive) | 18.1 µM (inactive) | 3.86 | 2.79 µM (inactive) | 1.71 µM (inactive) | 14.3 µM (inactive) | 4.69 µM (inactive) | 11.6 µM (inactive) | 19.5 µM (inactive) | 14.1 µM (inactive) | 2 µM (inactive) | 3.12 µM (inactive) | 5.85 µM (inactive) | 17.3 µM (inactive) | 3.42 µM (inactive) | 11.2 µM (inactive) | 6.7 µM (inactive) | – | – |
| Cc1ccc(-c2nnc(-c3nn(-c4ccccc4)c4nc5ccccc5nc34)o2)cc1 | 9.93 µM (inactive) | 14.4 µM (inactive) | 10.9 µM (inactive) | 21.4 | 10.9 µM (inactive) | 20.4 µM (inactive) | – | 17.6 µM (inactive) | – | 13.3 µM (inactive) | – | 29.9 µM (inactive) | 16 µM (inactive) | 3.03 µM (inactive) | 17.8 µM (inactive) | 6.05 µM (inactive) | – | 35.9 µM (inactive) | 10.6 µM (inactive) | 11.4 µM (inactive) |
| Cn1cnc([N+](=O)[O-])c1SC1=NCCS1 | > 100 µM (inactive) | 91 µM (inactive) | > 100 µM (inactive) | – | > 100 µM (inactive) | 74.6 µM (inactive) | 22 µM (inactive) | > 100 µM (inactive) | – | > 100 µM (inactive) | – | > 100 µM (inactive) | 25.6 µM (inactive) | > 100 µM (inactive) | > 100 µM (inactive) | – | – | 72.8 µM (inactive) | 27 µM (inactive) | > 100 µM (inactive) |
| N#Cc1cn(-c2c3ccccc3nc3ccccc23)c(=O)[nH]c1=O | 3.29 µM (inactive) | 4.19 µM (inactive) | – | 5.96 | 4.85 µM (inactive) | 3.8 µM (inactive) | 10.7 µM (inactive) | 23.3 µM (inactive) | – | 4.56 µM (inactive) | – | 18.2 µM (inactive) | 4.15 µM (inactive) | 2.51 µM (inactive) | 7.16 µM (inactive) | – | – | 4.86 µM (inactive) | 9.04 µM (inactive) | 11.6 µM (inactive) |
| COc1ccc2c(=O)c3ccoc3n(CC=C(C)C)c2c1 [ACROPHYLLINE] | > 91.6 µM (inactive) | 8.49 µM (inactive) | 32 µM (inactive) | 35.6 | 39.5 µM (inactive) | 18.2 µM (inactive) | 3.84 µM (inactive) | 74.5 µM (inactive) | 36.1 µM (inactive) | 7.14 µM (inactive) | 72.9 µM (inactive) | 43.9 µM (inactive) | 25.2 µM (inactive) | 97.1 µM (inactive) | 45.9 µM (inactive) | 28.5 µM (inactive) | 34 µM (inactive) | 75.2 µM (inactive) | – | – |

From ChEMBL document CHEMBL1201862, “PubChem BioAssay data set” (2004)
